Reference: patent US7906656B2, “Iodopyrazolyl carboxanilides” (Bayer CropScience AG, priority 2003, dated 2011)

The compounds below were run on Puccinia recondita (assay: Puccinia test (wheat)/protective). Details: 240 h, protective, application rate 500 g/ha, evaluation 10 days after inoculation, read-out: Efficacy in %.
Format: in vivo
Protocol: To produce a suitable preparation of active compound, 1 part by weight of active compound is mixed with the stated amounts of solvent and emulsifier, and the concentrate is diluted with water to the desired concentration. To test for protective activity, young plants are sprayed with the preparation of active compound at the stated application rate. After the spray coating has dried on, the plants are sprayed with a conidia suspension of Puccinia recondita. The plants remain in an incubation cabin at 20° C. and 100% relative atmospheric humidity for 48 hours. The plants are then placed in a greenhouse at a temperature of about 20° C. and a relative atmospheric humidity of 80% to promote the development of rust pustules. Evaluation is carried out 10 days after the inoculation. 0% means an efficacy which corresponds to that of the control, whereas an efficacy of 100% means that no infection is observed.

| Structure (SMILES) | pest or weed control at 500 g/ha [%] |
| --- | --- |
| CC(CC(C)(C)C)c1ccccc1NC(=O)c1cn(C)nc1I (centres unmarked) [drawing 111] | 100 |
| CC(C)CC(C)c1ccccc1NC(=O)c1cn(C)nc1I (centres unmarked) [drawing 112] | 100 |
| Cn1cc(C(=O)Nc2ccccc2-c2ccc(Cl)c(F)c2)c(I)n1 [drawing 113] | 100 |
| Cn1cc(C(=O)Nc2ccccc2-c2ccc(I)cc2)c(I)n1 [drawing 114] | 100 |
| Cn1cc(C(=O)Nc2ccccc2-c2ccc(Cl)c(Cl)c2)c(I)n1 [drawing 115] | 100 |
| Cn1cc(C(=O)Nc2ccccc2-c2ccc(Cl)cc2)c(I)n1 [drawing 116] | 100 |
| Cn1cc(C(=O)Nc2ccccc2-c2ccc(F)c(Cl)c2)c(I)n1 [drawing 117] | 100 |
| Cn1cc(C(=O)Nc2ccccc2-c2ccc(Br)cc2)c(I)n1 [drawing 118] | 100 |
| Cn1cc(C(=O)Nc2ccccc2-c2ccc(C(F)(F)F)c(F)c2)c(I)n1 [drawing 119] | 100 |
| CC(=O)N(C(=O)c1cn(C)nc1I)c1ccccc1C(C)CC(C)C (centres unmarked) [drawing 120] | 100 |
| CC(C)CC(C)c1cc(F)ccc1NC(=O)c1cn(C)nc1I (centres unmarked) [drawing 121] | 100 |
| CC(C)CCc1ccccc1NC(=O)c1cn(C)nc1I [drawing 122] | 100 |
| CC1CC(C)(C)c2cccc(NC(=O)c3cn(C)nc3I)c21 (centres unmarked) [drawing 123] | 100 |
| C=C(CC(C)(C)C)c1ccccc1NC(=O)c1cn(C)nc1I [drawing 124] | 100 |

These compounds were tested on Venturia inaequalis (assay: Venturia test (apple)/protective). Details: 240 h, protective, application rate 100 g/ha, evaluation 10 days after inoculation, read-out: Efficacy in %.
Format: in vivo
Protocol: (§1) To produce a suitable preparation of active compound, 1 part by weight of active compound is mixed with the stated amounts of solvents and emulsifier, and the concentrate is diluted with water to the desired concentration. To test for protective activity, young plants are sprayed with the preparation of active compound at the stated application rate. After the spray coating has dried on, the plants are inoculated with an aqueous conidia suspension of the apple pathogen Venturia inaequalis and then remain in an incubation cabin at about 20° C. and 100% relative atmospheric humidity for 1 day. The plants are then placed in a greenhouse at about 21° C. and a relative atmospheric humidity of about 90%. Evaluation is carried out 10 days after the inoculation. 0% means an efficacy which corresponds to that of the control, whereas an efficacy of 100% means that no infection is observed.

| Structure (SMILES) | pest or weed control at 100 g/ha [%] |
| --- | --- |
| CC(CC(C)(C)C)c1ccccc1NC(=O)c1cn(C)nc1I (centres unmarked) [drawing 69] | 100 |
| CC(C)CC(C)c1ccccc1NC(=O)c1cn(C)nc1I (centres unmarked) [drawing 70] | 100 |
| Cn1cc(C(=O)Nc2ccccc2-c2ccc(Cl)c(Cl)c2)c(I)n1 [drawing 71] | 99 |
| Cn1cc(C(=O)Nc2ccc(F)cc2-c2ccc(Cl)c(Cl)c2)c(I)n1 [drawing 72] | 100 |
| Cn1cc(C(=O)Nc2ccccc2-c2ccc(F)c(Cl)c2)c(I)n1 [drawing 73] | 100 |
| Cn1cc(C(=O)Nc2ccccc2-c2ccc(Br)cc2)c(I)n1 [drawing 74] | 100 |
| Cn1cc(C(=O)Nc2ccccc2-c2ccc(Cl)c(F)c2)c(I)n1 [drawing 75] | 100 |
| CCCO/N=C/c1ccc(-c2ccccc2NC(=O)c2cn(C)nc2I)cc1F [drawing 76] | 100 |
| Cc1ccc(-c2ccccc2NC(=O)c2cn(C)nc2I)cc1F [drawing 77] | 97 |
| Cn1cc(C(=O)Nc2ccccc2-c2ccc(C(F)(F)F)cc2)c(I)n1 [drawing 78] | 94 |
| Cn1cc(C(=O)Nc2ccccc2-c2ccc(C(F)(F)F)c(F)c2)c(I)n1 [drawing 79] | 98 |
| Cn1cc(C(=O)Nc2ccccc2-c2ccc(Cl)cc2)c(I)n1 [drawing 80] | 100 |
| Cn1cc(C(=O)Nc2ccccc2-c2ccc(I)cc2)c(I)n1 [drawing 81] | 99 |
| CC(C)CCc1ccccc1NC(=O)c1cn(C)nc1I [drawing 82] | 98 |
| CC1CC(C)(C)c2cccc(NC(=O)c3cn(C)nc3I)c21 (centres unmarked) [drawing 83] | 100 |
| CC(C)CC(C)c1cc(F)ccc1NC(=O)c1cn(C)nc1I (centres unmarked) [drawing 84] | 100 |

What follows are compounds tested on Podosphaera leucotricha (assay: Podosphaera test (apple)/protective). Details: 240 h, protective, application rate 100 g/ha, evaluation 10 days after inoculation, read-out: Efficacy in %.
Format: in vivo
Protocol: as §1, with “spore” for “conidia”, “apple mildew” for “apple”, “Podosphaera leucotricha.” for “Venturia inaequalis and then remain in an incubation cabin at about 20° C. and 100% relative atmospheric humidity for 1 day.”, “23°” for “21°”, “70%.” for “90%.”

| Structure (SMILES) | pest or weed control at 100 g/ha [%] |
| --- | --- |
| CC(CC(C)(C)C)c1ccccc1NC(=O)c1cn(C)nc1I (centres unmarked) [drawing 53] | 100 |
| CC(C)CC(C)c1ccccc1NC(=O)c1cn(C)nc1I (centres unmarked) [drawing 54] | 100 |
| Cn1cc(C(=O)Nc2ccccc2-c2ccc(Cl)c(Cl)c2)c(I)n1 [drawing 55] | 99 |
| Cn1cc(C(=O)Nc2ccc(F)cc2-c2ccc(Cl)c(Cl)c2)c(I)n1 [drawing 56] | 100 |
| Cn1cc(C(=O)Nc2ccccc2-c2ccc(F)c(Cl)c2)c(I)n1 [drawing 57] | 100 |
| Cn1cc(C(=O)Nc2ccccc2-c2ccc(Br)cc2)c(I)n1 [drawing 58] | 100 |
| Cn1cc(C(=O)Nc2ccccc2-c2ccc(Cl)c(F)c2)c(I)n1 [drawing 59] | 100 |
| CCCO/N=C/c1ccc(-c2ccccc2NC(=O)c2cn(C)nc2I)cc1F [drawing 60] | 100 |
| Cc1ccc(-c2ccccc2NC(=O)c2cn(C)nc2I)cc1F [drawing 61] | 100 |
| Cn1cc(C(=O)Nc2ccccc2-c2ccc(C(F)(F)F)cc2)c(I)n1 [drawing 62] | 88 |
| Cn1cc(C(=O)Nc2ccccc2-c2ccc(C(F)(F)F)c(F)c2)c(I)n1 [drawing 63] | 99 |
| Cn1cc(C(=O)Nc2ccccc2-c2ccc(Cl)cc2)c(I)n1 [drawing 64] | 100 |
| Cn1cc(C(=O)Nc2ccccc2-c2ccc(I)cc2)c(I)n1 [drawing 65] | 100 |
| CC(C)CCc1ccccc1NC(=O)c1cn(C)nc1I [drawing 66] | 98 |
| CC1CC(C)(C)c2cccc(NC(=O)c3cn(C)nc3I)c21 (centres unmarked) [drawing 67] | 100 |
| CC(C)CC(C)c1cc(F)ccc1NC(=O)c1cn(C)nc1I (centres unmarked) [drawing 68] | 100 |

What follows are compounds tested on Botrytis cinerea (assay: Botrytis test (bean)/protective). Details: 48 h, protective, application rate 100 g/ha, evaluation 2 days after inoculation, read-out: Efficacy in %.
Format: in vivo
Protocol: To produce a suitable preparation of active compound, 1 part by weight of active compound is mixed with the stated amounts of solvents and emulsifier, and the concentrate is diluted with water to the desired concentration. To test for protective activity, young plants are sprayed with the preparation of active compound at the stated application rate. After the spray coating has dried on, 2 small pieces of agar colonized with Botrytis cinerea are placed onto each leaf. The inoculated plants are placed in a darkened chamber at about 20° C. and 100% relative atmospheric humidity. 2 days after the inoculation, the size of the infected areas on the leaves is evaluated. 0% means an efficacy which corresponds to that of the control, whereas an efficacy of 100% means that no infection is observed.

| Structure (SMILES) | pest or weed control at 100 g/ha [%] |
| --- | --- |
| Cn1cc(C(=O)Nc2ccc(F)cc2-c2ccc(Cl)c(Cl)c2)c(I)n1 [drawing 88] | 100 |
| Cn1cc(C(=O)Nc2ccccc2-c2ccc(Cl)cc2)c(I)n1 [drawing 96] | 100 |
| Cn1cc(C(=O)Nc2ccccc2-c2ccc(I)cc2)c(I)n1 [drawing 97] | 100 |
| CC(C)CCc1ccccc1NC(=O)c1cn(C)nc1I [drawing 98] | 98 |
| CC1CC(C)(C)c2cccc(NC(=O)c3cn(C)nc3I)c21 (centres unmarked) [drawing 99] | 100 |
| CC(C)CC(C)c1cc(F)ccc1NC(=O)c1cn(C)nc1I (centres unmarked) [drawing 100] | 100 |

Same assay, conditions: 48 h, protective, application rate 500 g/ha, evaluation 2 days after inoculation, read-out: Efficacy in %

| Structure (SMILES) | pest or weed control at 500 g/ha [%] |
| --- | --- |
| CC(CC(C)(C)C)c1ccccc1NC(=O)c1cn(C)nc1I (centres unmarked) [drawing 85] | 100 |
| CC(C)CC(C)c1ccccc1NC(=O)c1cn(C)nc1I (centres unmarked) [drawing 86] | 100 |
| Cn1cc(C(=O)Nc2ccccc2-c2ccc(Cl)c(Cl)c2)c(I)n1 [drawing 87] | 100 |
| Cn1cc(C(=O)Nc2ccccc2-c2ccc(F)c(Cl)c2)c(I)n1 [drawing 89] | 100 |
| Cn1cc(C(=O)Nc2ccccc2-c2ccc(Br)cc2)c(I)n1 [drawing 90] | 100 |
| Cn1cc(C(=O)Nc2ccccc2-c2ccc(Cl)c(F)c2)c(I)n1 [drawing 91] | 100 |
| CCCO/N=C/c1ccc(-c2ccccc2NC(=O)c2cn(C)nc2I)cc1F [drawing 92] | 100 |
| Cc1ccc(-c2ccccc2NC(=O)c2cn(C)nc2I)cc1F [drawing 93] | 100 |
| Cn1cc(C(=O)Nc2ccccc2-c2ccc(C(F)(F)F)cc2)c(I)n1 [drawing 94] | 94 |
| Cn1cc(C(=O)Nc2ccccc2-c2ccc(C(F)(F)F)c(F)c2)c(I)n1 [drawing 95] | 100 |
